Test results published in US11952384B2, “Anti-tumor compound and preparation method and use thereof” (DUALITY BIOLOGICS (SUZHOU) CO., LTD., priority 2020, dated 2024).
pIC50: −log10 of the molar value. Like-named read-outs stand apart in the source and are kept apart here.

Tests used:
Experiment in all cases: Inhibition of in vitro proliferation of tumor cells by compounds (CTG, 6 days)
Type in all cases: cell-based
NCI-N87 cells = settings: small molecule fragments, 6 days of culture, CTG, read-out: NCI-N87 IC50
How it was run: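 NCI-N87 cells in RPMI-1640 with 10% FBS, plated and allowed 18 h attachment, then exposed in duplicate to 8 concentrations from 300 nM to 0.1 nM for 6 days at 37 °C, 5% CO2. Viability read by CellTiter-Glo luminescence; IC50 derived from the dose-response.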

JIMT-1 cells = settings: small molecule fragments, 6 days of culture, CTG, read-out: JIMT-1 IC50
How it was run: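 JIMT-1 cells in RPMI-1640/10% FBS plated at 6×10^4 cells/mL, left 18 h, then exposed to 8 compound concentrations (0.1–300 nM) in duplicate for 6 days at 37° C. Viability by CellTiter-Glo luminescence; IC50 derived.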

MDA-MB-231 cells = settings: small molecule fragments, 6 days of culture, CTG, read-out: MDA-MB-231 IC50
Experimental: To test the inhibitory activity of the pharmaceutical compounds on the in vitro proliferation of NCI-N87, JIMT-1 and MBA-MB-231 tumor cells. The cells were treated with compounds at different concentrations in vitro, and after 6 days of culture, the proliferation of cells was detected using CTG (CellTiter-Glo® Luminescent Cell Viability Assay, Promega, Cat. No. G7558) reagents, and the in vitro activity of the compounds was evaluated according to the IC50 value. • 1. Culturing of cells: NCI-N87/JIMT-1/MBA-MB-231 cells were cultured in RPMI-1640 medium containing 10% FBS. • 2. Preparation of cells: NCI-N87/JIMT-1/MBA-MB-231 cells in logarithmic phase were taken, washed with PBS once, and digested with 2-3 mL of trypsin for 2-3 min. After the cells were digested completely, 10-15 mL of cell culture was added to elute the digested cells. The eluate was centrifuged at 1000 rpm for 5 min, and the supernatant was discarded. The resulting cells were resuspended in 10-20 mL of cell culture to obtain a single cell suspension. • 3. Cell plating: the NCI-N87/JIMT-1/MBA-MB-231 single cell suspension was mixed well and adjusted to a viable cell density of 6×10^4 cells/mL with cell culture. The cell suspension with the adjusted density was mixed well and added to a 96-well cell culture plate at 50 μL/well. The culture plate was incubated in an incubator for 18 h (37° C., 5% CO2). • 4. Preparation of compounds: the compounds were dissolved in DMSO to obtain stock solutions at an initial concentration of 10 mM. There were 8 concentrations in total for the small molecule compounds: 300 nM, 100 nM, 30 nM, 10 nM, 3 nM, 1 nM, 0.3 nM, and 0.1 nM. • 5. Sample adding: the prepared samples to be detected at different concentrations were added to the culture plate, and two duplicate wells were set for each sample. The culture plate was incubated in an incubator for 6 days (37° C., 5% CO2). • 6. Color developing: the 96-well cell culture plate was taken out, added with the CTG reagent at 50 μL/well, and incubated at room temperature for 10 min. • 7. Plate reading: the 96-well cell culture plate was taken out, placed in a microplate reader, and measured for the chemiluminescence using the microplate reader. Data analysis: data were processed and analyzed using Microsoft Excel and Graphpad Prism 5.

[1] = Homo sapiens, NCI-N87, 144 h, Table 1, Test Example 2.1
[2] = Homo sapiens, JIMT-1, 144 h, Table 1, Test Example 2.1
[3] = Homo sapiens, NCI-N87, 144 h, Table 2 (untitled), Test Example 2.2
[4] = Homo sapiens, JIMT-1, 144 h, Table 2 (untitled), Test Example 2.2
[5] = Homo sapiens, MDA-MB-231, 144 h, Table 2 (untitled), Test Example 2.2
[6] = Table 2 (untitled), Test Example 2.2

Row | Compound | pIC50 (NCI-N87 cells; [1]) | pIC50 (NCI-N87 cells; Homo sapiens, NCI-N87, 144 h, Table 3, Test Example 2.3) | pIC50 (NCI-N87 cells; Homo sapiens, NCI-N87, 144 h, Table 4, Test Example 2.4) | pIC50 (JIMT-1 cells; [2]) | pIC50 (JIMT-1 cells; Homo sapiens, JIMT-1, 144 h, Table 3, Test Example 2.3) | pIC50 (MDA-MB-231 cells; Homo sapiens, MDA-MB-231, 144 h, Table 3, Test Example 2.3) | pIC50 (NCI-N87 cells; [3]) | pIC50 (JIMT-1 cells; [4]) | pIC50 (MDA-MB-231 cells; [5]) | pIC50 (JIMT-1 cells; Table 1, Test Example 2.1) | pIC50 (JIMT-1 cells; [6]) | pIC50 (NCI-N87 cells; Table 1, Test Example 2.1) | pIC50 (NCI-N87 cells; [6]) | pIC50 (MDA-MB-231 cells; [6])
1 | CC[C@@]1(O)C(=O)OCc2c1cc1n(c2=O)Cc2c-1nc1cc(F)c(C)c3c1c2[C@@H](NC(=O)C[C@@H](C)O)CC3 [P-III-20, (R)—N-((1S,9S)-9-ethyl-5-fluoro-9-hydroxy-4-methyl-10,13-dioxo-2,3,9,10,13,15-hexahydro-1H,12H-benzo[de]pyrano[3′,4′: 6,7]indolizino[1,2-b]quinolin-1-yl)-3-hydroxybutanamide] | 8.23 | 8.23 | 8.23 | 8.36 | 8.36 | 8.18 | – | – | – | – | – | – | – | –
2 | CC[C@@]1(O)C(=O)OCc2c1cc1n(c2=O)Cc2c-1nc1cc(F)c(C)c3c1c2[C@@H](NC(=O)[C@H]1C[C@@H](O)C1)CC3 [P-II-3, (1s,3R)-N-((1S,9S)-9-ethyl-5-fluoro-9-hydroxy-4-methyl-10,13-dioxo-2,3,9,10,13,15-hexahydro-1H,12H-benzo[de]pyrano[3′,4′:6,7]indolizino[1,2-b]quinolin-1-yl)-3-hydroxycyclobutane-1-carboxamide] | 8.02 | – | – | 8.30 | – | – | 8.02 | 8.30 | 8.03 | – | – | – | – | –
3 | CC[C@@]1(O)C(=O)OCc2c1cc1n(c2=O)Cc2c-1nc1cc(F)c(C)c3c1c2[C@@H](NC(=O)C1CCC(O)CC1)CC3 (single isomer, unassigned) [P-II-1] | 7.73 | – | – | – | – | – | 7.73 | – | 7.89 | 8.07 | 8.07 | – | – | –
4 | CC[C@@]1(O)C(=O)OCc2c1cc1n(c2=O)Cc2c-1nc1cc(F)c(C)c3c1c2[C@@H](NC(=O)C1CCC(O)CC1)CC3 (single isomer, unassigned) [P-II-2] | – | – | – | – | – | – | – | – | – | 7.77 | 7.76 | 7.66 | 7.66 | 7.71
5 | CC[C@@]1(O)C(=O)OCc2c1cc1n(c2=O)Cc2c-1nc1cc(F)c(C)c3c1c2[C@@H](NC(=O)[C@H]1C[C@H](O)C1)CC3 [P-II-4, (1r,3S)-N-((1S,9S)-9-ethyl-5-fluoro-9-hydroxy-4-methyl-10,13-dioxo-2,3,9,10,13,15-hexahydro-1H,12H-benzo[de]pyrano[3′,4′:6,7]indolizino[1,2-b]quinolin-1-yl)-3-hydroxycyclobutane-1-carboxamide] | 8.10 | – | – | 8.18 | – | – | 8.10 | 8.18 | 8.12 | – | – | – | – | –
